ChEMBL document CHEMBL4145602, “Cyclic Peptidic Mimetics of Apollo Peptides Targeting Telomeric Repeat Binding Factor 2 (TRF2) and Apollo Interaction” (ACS Med Chem Lett, 2018)
Square brackets hold non-standard residues; d marks the D form. Peptide text beside a SMILES is read from it. Chg = N[C@H](C(=O)O)C1CCCCC1

Target: T1, Telomeric repeat-binding factor 2 (Homo sapiens, UniProt Q15554)
T1 sequence (Q15554 whole entry): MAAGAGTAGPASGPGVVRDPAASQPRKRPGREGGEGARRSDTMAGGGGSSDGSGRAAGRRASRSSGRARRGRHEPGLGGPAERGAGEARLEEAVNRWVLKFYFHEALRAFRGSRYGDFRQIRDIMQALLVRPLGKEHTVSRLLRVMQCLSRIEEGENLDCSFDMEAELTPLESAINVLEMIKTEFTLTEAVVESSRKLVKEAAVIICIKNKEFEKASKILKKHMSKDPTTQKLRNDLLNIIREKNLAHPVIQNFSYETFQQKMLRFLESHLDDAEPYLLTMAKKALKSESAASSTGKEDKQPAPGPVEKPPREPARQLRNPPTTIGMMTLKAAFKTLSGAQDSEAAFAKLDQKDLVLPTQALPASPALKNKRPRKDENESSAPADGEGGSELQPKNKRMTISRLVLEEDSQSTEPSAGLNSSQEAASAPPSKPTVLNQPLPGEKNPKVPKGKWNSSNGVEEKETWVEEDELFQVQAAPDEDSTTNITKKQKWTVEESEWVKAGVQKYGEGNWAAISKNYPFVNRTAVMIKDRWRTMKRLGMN
Assay: Displacement of 5-((2R,6S,9S,12S,15S,18S,21S,24S)-3-((S)-2-((S)-1-amino-3-methyl-1-oxobutan-2-ylcarbamoyl)pyrrolidine-1-carbonyl)-15-(4-aminobutyl)-2-hydroxy-12-(4-hydroxybenzyl)-6,9,18,24-tetraisobutyl-21-methyl-5,8,11,14,17,20,23,26,29-nonaoxo-4,7,10,13,16,19,22,25,28-nonaazatetratriacontan-34-ylcarbamoyl)-2-(6-hydroxy-3-oxo-3H-xanthen-9-yl)benzoic acid from TRF2 TRFH domain (unknown origin) after 30 mins by fluorescence polarization assay

Structure (SMILES)	Ki [nM]
CC(=O)N[C@@H](CC(C)C)C(=O)N[C@@H](C)C(=O)N[C@@H](CC(C)C)C(=O)N[C@@H](CCCCN)C(=O)N[C@@H](Cc1ccc(O)cc1)C(=O)N[C@@H](CC(C)C)C(=O)N[C@H](C(=O)N[C@H](C(=O)N1CCC[C@H]1C(=O)N[C@H](C(N)=O)C(C)C)[C@@H](C)O)C1CCCCC1 (Ac-LALKYL[Chg]TPV-NH2)	210
CC(C)C[C@@H]1NC(=O)[C@@H](N)CCCCCCC[C@@H](C(=O)N(C)C)NC(=O)[C@@H]2CCCN2C(=O)[C@H](C)NC1=O	115000
CC(C)C[C@H](NC(=O)CN)C(=O)N[C@@H](C)C(=O)N[C@@H](CC(C)C)C(=O)N[C@@H](CCCCN)C(=O)N[C@@H](Cc1ccc(O)cc1)C(=O)N[C@@H](CC(C)C)C(=O)N[C@@H](CC(C)C)C(=O)N[C@H](C(=O)N1CCC[C@H]1C(=O)N[C@H](C(=O)O)C(C)C)[C@@H](C)O (H-GLALKYLLTPV-OH)	380
